pIC50: −log10 of the molar value. “Also recorded” adds a separate entry of the source. Like-named read-outs stand apart in the source and are kept apart here.

Data set [1] has as its system human hepatoma cell line (HepG2). Put plainly: MTT assay, tumor cell proliferation inhibition, HepG2. The note with it: 72 h, read-out: Tumor inhibition rate (IC50). The format is cell-based. How it is done: (§1) Cell lines to be tested: human hepatoma cell line (HepG2), human lung cancer cell line (A549), human prostate cancer cell line (DU145), human breast cancer cell line (MCF-7), human neuroblastoma cell line (SH-SY5Y), human gastric mucosal cell line (Ges-1) and human embryonic lung fibroblast cell line (CCC-HPF-1) (the cells to be tested were purchased from the Cancer Hospital of Chinese Academy of Medical Sciences).
(§2) The cells in logarithmic growth phase were treated to prepare a single cell suspension, with the cell density adjusted, which was seeded in a 96-well cell culture plate. About 2×10^3 cells were contained in 100 μL per well, and cultured in a cell incubator at 37° C., 5% CO2, and saturated humidity for 24 h. The used medium was aspirated and abandoned, and then 100 μL of the target compound in different concentrations (0.1 μM-100 μM) were added for drug treatment. Five duplicate wells were prepared for each concentration. The background blank well, negative control well and positive control well were also prepared. All the wells were placed in a cell culture incubator at 37° C., 5% CO2, saturated humidity for another 72 h. Then, each well was added with 10 μL of MTT solution (5 mg/mL) and incubated for another 4 h. After that, each well was added with 100 μL of 10% SDS-0.1% NH4Cl (10% SDS purchased from Beijing Mengyimei Biotechnology Co., Ltd.) solution, and incubated at 37° C. for 10 h in the dark. Then, the absorbance OD was measured at 570 nm using a microplate reader at a reference wavelength of 650 nm. Cell proliferation inhibition was calculated according to the following formula: % inhibition=(ODcontrol−ODtreat)(ODcontrol−ODblank)×100. […] Each group was performed at least three times in parallel.
Background: Tetrazolium dyes change colour on reduction, which living cells bring about.

Data set [2] relates to human neuroblastoma cell line (SH-SY5Y). Put plainly: MTT assay, tumor cell proliferation inhibition, SH-SY5Y. The format is cell-based. The note with it: SH-SY5Y, 72 h, read-out: Tumor inhibition rate (IC50). The procedure:
as §1, §2

In data set [3] the test system is human lung cancer cell line (A549). Description: MTT assay, tumor cell proliferation inhibition, A549. The format is cell-based. As to conditions: A549, MTT, 72 h, read-out: Tumor inhibition rate (IC50). The procedure: as §1, §2
Data set [4] has as its system human breast cancer cell line (MCF-7). Put plainly: MTT assay, tumor cell proliferation inhibition, MCF-7. Format: cell-based. The note with it: MCF-7, MTT, 72 h, read-out: Tumor inhibition rate (IC50). How it is done:
as §1, §2

The test system of data set [5] is human prostate cancer cell line (DU145). Put plainly: MTT assay, tumor cell proliferation inhibition, DU145. The format is cell-based. The note with it: DU145, MTT, 72 h, read-out: Tumor inhibition rate (IC50). How it is done: as §1, §2
Data set [6] concerns tumor cell strains HepG2, A549, MCF-7, DU145 and SH-SY5Y. Put plainly: MTT assay, summary over the five tumor cell lines. Format: cell-based, human. As to conditions: HepG2, A549, MCF-7, DU145, SH-SY5Y. How it is done:
as §1
The cells in logarithmic growth phase were treated to prepare a single cell suspension, with the cell density adjusted, which was seeded in a 96-well cell culture plate. About 2×10^3 cells were contained in 100 μL per well, and cultured in a cell incubator at 37° C., 5% CO2, and saturated humidity for 24 h. The used medium was aspirated and abandoned, and then 100 μL of the target compound in different concentrations (0.1 μM-100 μM) were added for drug treatment. Five duplicate wells were prepared for each concentration. The background blank well, negative control well and positive control well were also prepared. All the wells were placed in a cell culture incubator at 37° C., 5% CO2, saturated humidity for another 72 h. Then, each well was added with 10 μL of MTT solution (5 mg/mL) and incubated for another 4 h. After that, each well was added with 100 μL of 10% SDS-0.1% NH4Cl (10% SDS purchased from Beijing Mengyimei Biotechnology Co., Ltd.) solution, and incubated at 37° C. for 10 h in the dark. Then, the absorbance OD was measured at 570 nm using a microplate reader at a reference wavelength of 650 nm. Cell proliferation inhibition was calculated according to the following formula: % inhibition=(ODcontrol−ODtreat)(ODcontrol−ODblank)×100. IC50 value, i.e., 50% proliferation inhibition concentration, was calculated by SPSS 16.0 software. Each group was performed at least three times in parallel.
The inhibitory activities of 35 target compounds against tumor cell strains HepG2, A549, MCF-7, DU145 and SH-SY5Y were tested by MTT assay (Table 1). Some compounds with optimal antitumor activity were selected.

For data set [7], the system named is HepG2 cancer cells. Put plainly: Nude mice bearing HepG2 cancer cells.
Method: Firstly, a tumor-bearing nude mouse model was established. […] Then, grouping and administration were performed; the nude mice (5 mice in each group) were randomly divided into several groups, such as ultra-pure water control group (blank), positive drug control group, and different dosage treatment groups. The nude mice in each group were administered continuously for 40 days. The nude mice were weighted every other day during the administration. Tumor volumes were measured and calculated.

For the compound `c1ccc(COc2ccc(Nc3ncnc4cc5c(cc34)OCCOCCOCCOCCO5)cc2)cc1` [Compound 29, N-(4-((phenyl)methoxy)phenyl)-6,7-(benzo-15-crown-5)-4-quinazolinamine], the negative-log IC50 (pIC50) (usually the negative decadic logarithm of the IC50, by convention in mol/L) in data set [1] was 4.93; in data set [2], 5.28; in data set [3], 4.53; in data set [4], 4.92; in data set [5], 5.06. In data set [6], the “inhibitory effect on proliferation of the five tumor cells (in words)” value (shortened to “inhibitory effect on proliferation”) is “good inhibitory effect on proliferation of at least three of the five tumor cells”.
As to `FC(F)(F)c1ccc(COc2cccc(Nc3ncnc4cc5c(cc34)OCCOCCOCCOCCO5)c2)cc1` [Compound 34, N-(3-((4-trifluoromethylphenyl)methoxy)phenyl)-6,7-(benzo-15-crown-5)-4-quinazolinamine], the negative logarithm of the IC50 (pIC50) was 5.24 in data set [1]; 5.07 in data set [2]; 5.07 in data set [3]; 5.07 in data set [4]; 4.57 in data set [5]. Also, the “inhibitory effect on proliferation” value in data set [6] is listed as “good inhibitory effect on proliferation of at least three of the five tumor cells”.
Take `O=[N+]([O-])c1ccc(COc2ccccc2Nc2ncnc3cc4c(cc23)OCCOCCO4)cc1` [Compound 1, N-(2-((4-nitrophenyl)methoxy)phenyl)-6,7-(benzo-9-crown-3)-4-quinazolinamine]: the melting point (in general, the temperature, or range, at which the solid turns liquid) fell in the range of 192 to 193 °C. For the same compound, the pIC50 in data set [1] (Homo sapiens) was 4.30. Moreover, the pIC50 in data set [2] (Homo sapiens) is less than 4.00. In addition, the negative logarithm of the IC50 (pIC50) in data set [3] (Homo sapiens) is 4.55. Moreover, the negative-log IC50 (pIC50) in data set [4] (Homo sapiens, MCF7) is less than 4.00. Besides, in data set [5] (Homo sapiens, DU-145), the pIC50 is 4.07.
Compound `FC(F)(F)c1ccc(COc2ccc(Nc3ncnc4cc5c(cc34)OCCOCCOCCOCCO5)cc2)cc1` [Compound 35, N-(4-((4-trifluoromethylphenyl)methoxy)phenyl)-6,7-(benzo-15-crown-5)-4-quinazolinamine] displayed a melting point of 197 to 198 °C. Besides, the pIC50 in data set [1] (Homo sapiens) was 5.48. Also, the pIC50 in data set [2] (Homo sapiens) was 5.67. Besides, in data set [3] (Homo sapiens), the pIC50 is 5.07. For the same compound, in data set [4] (Homo sapiens, MCF7), the pIC50 is 5.00. For the same compound, the negative-log IC50 (pIC50) in data set [5] (Homo sapiens, DU-145) was 5.06. Further, the “inhibitory effect on proliferation” value in data set [6] is recorded as “good inhibitory effect on proliferation of at least three of the five tumor cells; also recorded: high anticancer activity on all the five tumor cells”. In addition, the “body weight of the mice (FIG. 6)” value in data set [7] (20 mg/Kg, single agent) is recorded as “significantly increased”. Besides, the “weight loss of nude mice (FIG. 6)” value in data set [7] (40 mg/Kg, single agent) is “weight loss of nude mice is similar”. For the same compound, the “tumor growth (tumor volume, FIG. 5)” value in data set [7] (nude mice bearing HepG2, single agent) is reported as “can slow down the tumor growth with increasing drug dose”.
In the case of `O=[N+]([O-])c1ccc(COc2cccc(Nc3ncnc4cc5c(cc34)OCCOCCOCCOCCO5)c2)cc1` [Compound 31, N-(3-((4-nitrophenyl)methoxy)phenyl)-6,7-(benzo-15-crown-5)-4-quinazolinamine], the melting point was 136 to 137 °C. Besides, the pIC50 in data set [1] (Homo sapiens) is 5.01. For the same compound, in data set [2] (Homo sapiens), the pIC50 is 5.07. Further, the negative logarithm of the IC50 (pIC50) in data set [3] (Homo sapiens) was 4.70. In addition, the pIC50 in data set [4] (Homo sapiens, MCF7) was 5.19. Further, the pIC50 in data set [5] (Homo sapiens, DU-145) was 4.86. The “inhibitory effect on proliferation” value in data set [6] is reported as “good inhibitory effect on proliferation of at least three of the five tumor cells”.

The values above are taken from patent publication US11504371B2, “Quinazolines compound, preparation method therefor and application thereof” (Beijing Normal University, priority 2017, dated 2022).
